Results from US10988433B2, “Cyclohexyl GPR40 agonists for the treatment of type II diabetes” (Janssen Pharmaceutica NV, priority 2016, dated 2021).

What was measured:
human GPR40 = target: T1, human GPR40 (Homo sapiens, UniProt O14842); experiment: GPR40 calcium flux assay, HEK293 cells stably expressing human GPR40; type: cell-based; details: transfected HEK293 cells stably expressing human GPR40, Fluo 8 dye, read-out: hGPR40 Ca2+ Assay EC50
T1 construct: expressed in transfected cells
Method: (§1) Compounds were tested in a calcium flux assay using transfected HEK293 cells stably expressing either human GPR40 or rat GPR40. Human GPR40 expressing cells were cultured in DMEM-High Glucose media supplemented with 10% fetal bovine serum, 1×L-Glutamine, 1×Penicillin/Streptomycin and 500 μg/mL G418. Rat GPR40 expressing cells were cultured in DMEM-High Glucose media supplemented with 10% fetal bovine serum and 1 μg/mL puromycin. Cells were plated into poly-D-lysine coated 384-well plates and cultured overnight in a 37° C. humidified tissue culture incubator under 5% CO2/[…] atmosphere. On the day of the experiment, the culture media was replaced with assay buffer (HBSS, 20 mM HEPES, 0.1% BSA) and the cells incubated at 37° C. for 1 h. Calcium-sensitive fluorescent dye (Fluo 8 No-Wash Calcium Dye, ABD Bioquest) was then added and the cells incubated for another 30 min at 37° C. followed by 15 min at room temperature while protected from the light. The cell plate and a plate of diluted compounds of Formula (I) were loaded into a fluorescent plate reader that added compounds onto the cells while measuring the fluorescence intensity of each well. The plate reader recorded fluorescence intensity at 1 second intervals for 8 min and provided the data for analysis in an Excel format. EC50 values were calculated using Prism (GraphPad) software.

rat GPR40 = target: T2, rat GPR40 (Rattus norvegicus, UniProt Q8K3T4); experiment: GPR40 calcium flux assay, HEK293 cells stably expressing rat GPR40; type: cell-based; details: transfected HEK293 cells stably expressing rat GPR40, Fluo 8 dye, read-out: rGPR40 Ca2+ Assay EC50
T2 construct: expressed in transfected cells
T2 sequence (Q8K3T4 whole entry): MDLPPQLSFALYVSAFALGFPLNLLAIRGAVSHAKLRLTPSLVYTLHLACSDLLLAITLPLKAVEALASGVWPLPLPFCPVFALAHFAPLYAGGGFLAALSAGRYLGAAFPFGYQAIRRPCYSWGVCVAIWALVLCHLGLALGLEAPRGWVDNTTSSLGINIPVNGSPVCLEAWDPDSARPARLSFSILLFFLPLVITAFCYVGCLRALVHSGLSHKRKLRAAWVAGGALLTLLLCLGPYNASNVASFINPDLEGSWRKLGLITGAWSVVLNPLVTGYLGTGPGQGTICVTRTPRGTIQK
Method: as §1

T1 sequence (O14842 whole entry): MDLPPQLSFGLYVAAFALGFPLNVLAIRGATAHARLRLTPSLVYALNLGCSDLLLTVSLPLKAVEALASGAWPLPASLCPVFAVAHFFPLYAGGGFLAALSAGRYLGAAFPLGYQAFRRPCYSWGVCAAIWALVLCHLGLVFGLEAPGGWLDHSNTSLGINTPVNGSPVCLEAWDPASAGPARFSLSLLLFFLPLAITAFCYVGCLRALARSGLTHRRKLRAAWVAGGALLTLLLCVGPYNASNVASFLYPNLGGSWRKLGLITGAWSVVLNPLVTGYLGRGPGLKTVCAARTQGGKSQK

Structure (SMILES)	EC50 (human GPR40) [nM]	EC50 (rat GPR40) [nM]
COc1cc(C2CCC(COc3cccc([C@@H](CC(=O)O)C4CC4)c3)C(C)C2)c(F)cn1 (stereo partly drawn) [Cpd 33, (3S)-3-Cyclopropyl-3-(3-((4-(5-fluoro-2-methoxypyridin-4-yl)-2-methylcyclohexyl)methoxy)phenyl)propanoic acid]	3.7	17.3
COc1ccc(F)c([C@H]2CC[C@H](COc3cccc([C@H](C4CC4)C(C)C(=O)O)c3)CC2)c1 (single isomer, unassigned) [Cpd 51]	2.2	4.9
COc1ccc(C)c(C2CCC(COc3cccc([C@H](C4CC4)C(C)(F)C(=O)O)c3)CC2)c1 (stereo partly drawn) [Cpd 70, (3S)-3-Cyclopropyl-2-fluoro-3-(3-((4-(5-methoxy-2-methylphenyl)cyclohexyl)methoxy)phenyl)-2-methylpropanoic acid]	0.16	0.15
COc1cccc(C2CCC(COc3cccc([C@H](C4CC4)C(C)(F)C(=O)O)c3)CC2)c1 (stereo partly drawn) [Cpd 66, (3S)-3-Cyclopropyl-2-fluoro-3-(3-((4-(3-methoxyphenyl)cyclohexyl)methoxy)phenyl)-2-methylpropanoic acid]	0.25	0.4
COc1ccc(F)c([C@]2(F)CC[C@@H](COc3cccc([C@@H](CC(=O)O)C4CC4)c3)CC2)c1 [Cpd 20, (S)-3-Cyclopropyl-3-(3-(((1s,4R)-4-fluoro-4-(2-fluoro-5-methoxyphenyl)cyclohexyl)methoxy)phenyl)propanoic acid]	9.9	40.7
COc1ccc(F)c([C@H]2CC[C@H](COc3ccnc(C(CC(=O)O)C4CC4)c3)CC2)c1 (some centres unmarked) [Cpd 34, 3-Cyclopropyl-3-(4-(((1r,4r)-4-(2-fluoro-5-methoxyphenyl)cyclohexyl)methoxy)pyridin-2-yl)propanoic acid]	62.4	282
COc1ccc(F)c([C@H]2CC[C@H](/C=C/c3cccc([C@@H](CC(=O)O)C4CC4)c3)CC2)c1 [Cpd 28, (S)-3-cyclopropyl-3-(3-((E)-2-((1r,4S)-4-(2-fluoro-5-methoxyphenyl)cyclohexyl)vinyl)phenyl)propanoic acid]	2.6	6.1
COc1cc([C@H]2CC[C@@H](COc3cc(C(CC(=O)O)C4CC4)ccn3)CC2)c(F)cn1 (some centres unmarked) [Cpd 7, 3-Cyclopropyl-3-(2-(((1s,4s)-4-(5-fluoro-2-methoxypyridin-4-yl)cyclohexyl)methoxy)pyridin-4-yl)propanoic acid]	34.7	79.8
COc1ccc(F)c([C@H]2CC[C@@H](COc3cc([C@H](CC(=O)O)C4CC4)ccn3)CC2)c1 [Cpd 41, (R)-3-Cyclopropyl-3-(2-(((1s,4S)-4-(2-fluoro-5-methoxyphenyl)cyclohexyl)methoxy)pyridin-4-yl)propanoic acid]	18	43
CC#CC(CC(=O)O)c1cccc(OC[C@H]2CC[C@@H](c3cc(OC)ccc3F)CC2)c1 (some centres unmarked) [Cpd 42, 3-(3-(((1 s,4s)-4-(2-Fluoro-5-methoxyphenyl)cyclohexyl)methoxy)phenyl)hex-4-ynoic acid]	3100	401
COc1cc([C@H]2CC[C@H](COc3ccnc(C(CC(=O)O)C4CC4)c3)CC2)c(F)cn1 (some centres unmarked) [Cpd 31, 3-Cyclopropyl-3-(4-(((1r,4r)-4-(5-fluoro-2-methoxypyridin-4-yl)cyclohexyl)methoxy)pyridin-2-yl)propanoic acid]	26.1	54.2
COc1ccc(F)c([C@H]2CC[C@H](COc3cc([C@H](CC(=O)O)C4CC4)ccn3)CC2)c1 [Cpd 26, (R)-3-cyclopropyl-3-(2-(((1r,4r)-4-(2-fluoro-5-methoxyphenyl)cyclohexyl)methoxy)pyridin-4-yl)propanoic acid]	10.9	19.8
COc1ccc(F)c([C@H]2CC[C@H](COc3cc(C(CC(=O)O)C4CC4)ccn3)CC2)c1 (some centres unmarked) [Cpd 4, 3-Cyclopropyl-3-(2-(((1r,4r)-4-(2-fluoro-5-methoxyphenyl)cyclohexyl)methoxy)pyridin-4-yl) propanoic acid]	0.7	2.6
CCOC(CC(=O)O)c1cccc(OC[C@H]2CC[C@@H](c3cc(OC)ccc3F)CC2)c1 (some centres unmarked) [Cpd 50, 3-Ethoxy-3-(3-(((1s,4s)-4-(2-fluoro-5-methoxyphenyl)cyclohexyl)methoxy)phenyl) propanoic acid]	500	656
COc1ccc(Cl)c(C2CCC(COc3cccc([C@H](C4CC4)[C@@](C)(F)C(=O)O)c3)CC2)c1 (stereo partly drawn) [Cpd 64, (2R,3S)-3-(3-((4-(2-Chloro-5-methoxyphenyl)cyclohexyl)methoxy)phenyl)-3-cyclopropyl-2-fluoro-2-methylpropanoic acid]	0.19	0.56
COc1cc([C@H]2CC[C@H](COc3cncc(C(CC(=O)O)C4CC4)c3)CC2)c(F)cn1 (some centres unmarked) [Cpd 22, 3-Cyclopropyl-3-(5-(((1r,4r)-4-(5-fluoro-2-methoxypyridin-4-yl)cyclohexyl)methoxy)pyridin-3-yl)propanoic acid]	17.6	51.9
COc1ccc(F)c([C@H]2CC[C@H](COc3cccc([C@@H](Cc4nnn[nH]4)C4CC4)c3)CC2)c1 [Cpd 17, 5-((S)-2-Cyclopropyl-2-(3-(((1r,4S)-4-(2-fluoro-5-methoxyphenyl)cyclohexyl)methoxy)phenyl)ethyl)-1H-tetrazole]	44.3	388
COc1ccc(F)c([C@H]2CC[C@@H](COc3cc(C(CC(=O)O)C4CC4)ccn3)CC2)c1 (some centres unmarked) [Cpd 5, 3-Cyclopropyl-3-(2-(((1 s,4s)-4-(2-fluoro-5-methoxyphenyl)cyclohexyl)methoxy)pyridin-4-yl)propanoic acid]	75.6	146
COc1cc([C@H]2CC[C@@H](COc3cccc([C@@H](CC(=O)O)C4CC4)c3)CC2)c(F)cn1 [Cpd 10, (S)-3-Cyclopropyl-3-(3-(((1s,4R)-4-(5-fluoro-2-methoxypyridin-4-yl)cyclohexyl)methoxy)phenyl)propanoic acid]	26.9	76
COc1ccc(F)c([C@]2(O)CC[C@@H](COc3cccc([C@@H](CC(=O)O)C4CC4)c3)CC2)c1 [Cpd 3, (S)-3-Cyclopropyl-3-(3-(((1s,4R)-4-(2-fluoro-5-methoxyphenyl)-4-hydroxycyclohexyl)methoxy)phenyl)propanoic acid]	24.8	160
COc1ccc(F)c([C@H]2CC[C@@H](COc3cccc([C@H](CC(=O)O)C4CC4)c3)CC2)c1 [Cpd 37, (R)-3-Cyclopropyl-3-(3-(((1s,4S)-4-(2-fluoro-5-methoxyphenyl)cyclohexyl)methoxy)phenyl)propanoic acid]	687	1320
CCc1ccc(Cl)c(C2CCC(COc3cccc([C@H](C4CC4)C(C)(F)C(=O)O)c3)CC2)c1 (stereo partly drawn) [Cpd 65, (3S)-3-(3-((4-(2-Chloro-5-ethylphenyl)cyclohexyl)methoxy)phenyl)-3-cyclopropyl-2-fluoro-2-methylpropanoic acid]	0.59	1.75
COc1ccc(F)c([C@H]2CC[C@H](CNc3cccc([C@@H](CC(=O)O)C4CC4)c3)CC2)c1 [Cpd 40, (S)-3-Cyclopropyl-3-(3-((((1r,4 S)-4-(2-fluoro-5-methoxyphenyl)cyclohexyl)methyl)amino)phenyl)propanoic acid]	22	21
COc1ccc(F)c([C@H]2CC[C@H](CNc3cccc([C@H](C4CC4)C(C)(F)C(=O)O)c3)CC2)c1 (stereo partly drawn) [Cpd 77, (3S)-3-Cyclopropyl-2-fluoro-3-(3-((((1r,4S)-4-(2-fluoro-5-methoxyphenyl)cyclohexyl)methyl)amino)phenyl)-2-methylpropanoic acid]	1.72	10.4
COc1ccc(F)c([C@H]2CC[C@H](CCc3cccc([C@H](C4CC4)C(C)(F)C(=O)O)c3)CC2)c1 (stereo partly drawn) [Cpd 73, (3S)-3-Cyclopropyl-2-fluoro-3-(3-(2-((1r,4R)-4-(2-fluoro-5-methoxyphenyl)cyclohexyl)ethyl)phenyl)-2-methylpropanoic acid]	0.22	0.46
COc1ccc(F)c([C@]2(OC)CC[C@@H](COc3cccc([C@@H](CC(=O)O)C4CC4)c3)CC2)c1 [Cpd 11, (S)-3-Cyclopropyl-3-(3-(((1s,4R)-4-(2-fluoro-5-methoxyphenyl)-4-methoxycyclohexyl)methoxy)phenyl)propanoic acid]	2.1	18.4
CCc1ccc(F)c([C@H]2CC[C@H](COc3cccc([C@H](C4CC4)[C@H](C)C(=O)O)c3)CC2)c1 [Cpd 57, (2S,3R)-3-cyclopropyl-3-(3-(((1r,4R)-4-(5-ethyl-2-fluorophenyl)cyclohexyl)methoxy)phenyl)-2-methylpropanoic acid]	0.5	1.2
COc1ccc(C(=O)Nc2ccccn2)c(C2CCC(COc3cccc([C@H](C4CC4)C(C)(F)C(=O)O)c3)CC2)c1 (stereo partly drawn) [Cpd 71, (3S)-3-Cyclopropyl-2-fluoro-3-(3-((4-(5-methoxy-2-(pyridin-2-ylcarbamoyl)phenyl)cyclohexyl)methoxy)phenyl)-2-methylpropanoic acid]	1.9	2.36
